# Experimental data published in ChEMBL document CHEMBL1201862, “PubChem BioAssay data set” (2004).
# Calls of active or inactive are those of the source.
# Experiments:
# [1] = molecular target: T1, Heat shock factor protein 1 (Mus musculus, UniProt P38532); assay: decrease of HSF1-responsive luciferase luminescence – cell-based, NIH3T3, dose retest, confirmation (AID 2382); type: functional;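 note: NIH3T3 fibroblasts with HSF1-driven luciferase reporter stressed by proteasome inhibitor MG132; luminescence from HSF1-driven luciferase expression after 8 hours of MG132 stress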
# T1 sequence (P38532 whole entry): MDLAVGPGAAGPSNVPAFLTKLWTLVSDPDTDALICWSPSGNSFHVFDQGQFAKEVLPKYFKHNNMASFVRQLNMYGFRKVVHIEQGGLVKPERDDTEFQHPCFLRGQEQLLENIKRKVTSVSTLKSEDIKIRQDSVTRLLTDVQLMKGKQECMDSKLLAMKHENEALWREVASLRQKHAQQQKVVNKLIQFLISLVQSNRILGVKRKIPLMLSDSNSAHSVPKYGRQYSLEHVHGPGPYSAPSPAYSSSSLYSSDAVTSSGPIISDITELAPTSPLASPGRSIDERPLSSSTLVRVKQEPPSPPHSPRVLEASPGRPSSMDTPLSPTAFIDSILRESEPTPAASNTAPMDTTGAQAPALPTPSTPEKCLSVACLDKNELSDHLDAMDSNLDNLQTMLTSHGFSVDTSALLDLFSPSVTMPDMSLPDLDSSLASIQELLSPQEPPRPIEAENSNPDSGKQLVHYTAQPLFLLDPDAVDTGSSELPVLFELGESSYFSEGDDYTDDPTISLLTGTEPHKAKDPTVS
# Beta-galactosidase = Beta-galactosidase (Escherichia coli, UniProt Q8VNN2); assay: Dose response counterscreen for EBI2 assay utilizing the enzyme, b-galactosidase.; type: functional
# [2] = molecular target: Arf-GAP with SH3 domain, ANK repeat and PH domain-containing protein 1 (Homo sapiens, UniProt Q9ULH1); type: functional;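 note: biochemical fluorescence polarization dose–response screen measuring inhibition of ASAP1; ASAP1 GAP domain stimulating GTP hydrolysis by truncated human ARF1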
# Vero [3] = assay: viability loss in Vero cells – cell-based, plate reader, cherry-pick samples, cytotoxicity control, dose response (AID 687020); type: functional; conditions: Chlorocebus sabaeus
# Vero [4] = assay: viability of Vero cells under compound – cytotoxicity control for flavivirus capping enzyme inhibitors (AID 588742); type: functional; conditions: Chlorocebus sabaeus
# HEK293 = assay: EBV LMP1 TES2 canonical NF-kB signalling blockers – cell-based, HEK293, luciferase, cherry-pick, dose response (AID 588343); type: functional; conditions: Homo sapiens
# Interleukin-8 [5] = molecular target: T2, Interleukin-8 (Homo sapiens, UniProt P10145); assay: Dose Response confirmation of uHTS small molecule hits for cystic fibrosis induced NFkb Inhibitors in a PAF-induced IL8 counterscreen.; type: functional; conditions: read-out: IC50_Mean
# T2 sequence (P10145 whole entry): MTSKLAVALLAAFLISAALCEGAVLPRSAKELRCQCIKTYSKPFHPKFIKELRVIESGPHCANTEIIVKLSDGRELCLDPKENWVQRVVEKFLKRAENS
# Interleukin-8 [6] = molecular target: T2, Interleukin-8; assay: Dose Response confirmation of uHTS small molecule hits for cystic fibrosis induced NFkb Inhibitors in a TNFa-induced IL8 counterscreen.; type: functional; conditions: read-out: IC50_Mean
# Paired box protein Pax-8 = Paired box protein Pax-8 (Homo sapiens, UniProt Q06710); assay: PAX8 transcriptional activity inhibition in RMG-I – RMG-I cells, luciferase, cherry-pick, dose response (AID 687027); type: functional, cell-based;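 note: luciferase reporter driven by Pax8 target thyroperoxidase promoter measured by SteadyGlo luminescence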
# [7] = Fluorescence-based cell-based high throughput dose response assay for inhibitors of the interaction of nucleotide-binding oligomerization domain containing 2 (NOD2) and the receptor-interacting serine-threonine kinase 2 (RIPK2).; type: functional; conditions: Homo sapiens
# Phospholipase A2 = Phospholipase A2 (Homo sapiens, UniProt P04054); type: functional;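 note: confirmatory dose-response counterscreen on phospholipase A2, testing hits that came from an ultra-high-throughput screen for ATG4B inhibitors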
# Hexokinase HKDC1 = molecular target: T3, Hexokinase HKDC1 (Homo sapiens, UniProt Q2TB90); assay: inhibition of HKDC1 glucose phosphorylation – biochemical, W721R variant, dose response (AID 504729); type: functional
# T3 sequence (Q2TB90 whole entry): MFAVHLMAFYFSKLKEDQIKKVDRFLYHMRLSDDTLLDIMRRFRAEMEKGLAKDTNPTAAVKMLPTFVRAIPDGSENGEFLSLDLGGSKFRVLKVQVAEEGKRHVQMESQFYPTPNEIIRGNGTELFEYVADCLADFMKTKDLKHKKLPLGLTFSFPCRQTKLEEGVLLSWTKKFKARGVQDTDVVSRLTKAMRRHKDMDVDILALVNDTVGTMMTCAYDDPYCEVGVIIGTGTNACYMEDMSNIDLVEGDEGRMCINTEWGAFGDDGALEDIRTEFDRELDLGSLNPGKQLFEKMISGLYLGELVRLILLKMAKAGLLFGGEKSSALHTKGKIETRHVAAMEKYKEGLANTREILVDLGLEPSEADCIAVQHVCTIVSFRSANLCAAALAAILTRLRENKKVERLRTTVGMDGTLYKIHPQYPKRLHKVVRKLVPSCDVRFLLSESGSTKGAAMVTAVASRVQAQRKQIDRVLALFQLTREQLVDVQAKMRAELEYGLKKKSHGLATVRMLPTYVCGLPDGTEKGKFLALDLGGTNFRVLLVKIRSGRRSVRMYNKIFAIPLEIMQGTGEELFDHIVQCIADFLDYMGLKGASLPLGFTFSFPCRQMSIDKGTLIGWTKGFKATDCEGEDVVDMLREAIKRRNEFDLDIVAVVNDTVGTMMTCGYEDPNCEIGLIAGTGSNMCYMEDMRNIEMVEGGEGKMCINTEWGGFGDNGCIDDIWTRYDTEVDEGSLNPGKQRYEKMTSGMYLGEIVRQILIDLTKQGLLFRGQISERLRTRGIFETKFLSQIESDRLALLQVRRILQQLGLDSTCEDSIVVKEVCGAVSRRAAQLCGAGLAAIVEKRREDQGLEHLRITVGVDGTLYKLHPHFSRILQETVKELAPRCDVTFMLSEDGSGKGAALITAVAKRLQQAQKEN
# Large T antigen = Large T antigen (Simian virus 40, UniProt P03070); type: functional, Betapolyomavirus macacae;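 note: Confirmatory-stage PubChem screen for compounds that inhibit SV40 T antigen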
# [8] = molecular target: DNA (cytosine-5)-methyltransferase 1 (Homo sapiens, UniProt P26358); assay: inhibition of DNA methylation by DNMT1 – biochemical, fluorescent molecular beacon, confirmation (AID 602386); type: functional
# Cysteine protease ATG4B = molecular target: T4, Cysteine protease ATG4B (Homo sapiens, UniProt Q9Y4P1); type: functional;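 note: Fluorescence-based dose-response confirmation assay measuring inhibition of ATG4B activity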
# T4 sequence (Q9Y4P1 whole entry): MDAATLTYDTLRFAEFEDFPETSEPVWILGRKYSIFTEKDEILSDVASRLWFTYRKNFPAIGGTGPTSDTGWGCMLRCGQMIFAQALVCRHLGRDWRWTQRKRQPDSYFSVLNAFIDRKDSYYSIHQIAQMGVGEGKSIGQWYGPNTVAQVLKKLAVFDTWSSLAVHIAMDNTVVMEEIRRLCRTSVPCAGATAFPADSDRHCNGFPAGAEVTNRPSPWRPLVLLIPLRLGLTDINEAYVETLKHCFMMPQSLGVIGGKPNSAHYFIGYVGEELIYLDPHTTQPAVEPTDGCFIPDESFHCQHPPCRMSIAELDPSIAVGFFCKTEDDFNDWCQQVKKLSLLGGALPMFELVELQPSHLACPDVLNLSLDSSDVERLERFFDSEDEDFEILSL
# [9] = molecular target: T5, Low molecular weight phosphotyrosine protein phosphatase (Homo sapiens, UniProt P24666); type: functional; conditions: read-out: IC50_Mean
# T5 sequence (P24666 whole entry): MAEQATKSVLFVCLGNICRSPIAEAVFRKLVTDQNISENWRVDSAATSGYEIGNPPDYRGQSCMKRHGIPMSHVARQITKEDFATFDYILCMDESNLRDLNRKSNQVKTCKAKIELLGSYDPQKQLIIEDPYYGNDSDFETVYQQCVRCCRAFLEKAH
# [10] = molecular target: T5, Low molecular weight phosphotyrosine protein phosphatase; type: functional; conditions: read-out: IC50_Mean; remark: listed apart in the source
# Sequence of Arf-GAP with SH3 domain, ANK repeat and PH domain-containing protein 1 (Q9ULH1 whole entry, the tested form may be a part): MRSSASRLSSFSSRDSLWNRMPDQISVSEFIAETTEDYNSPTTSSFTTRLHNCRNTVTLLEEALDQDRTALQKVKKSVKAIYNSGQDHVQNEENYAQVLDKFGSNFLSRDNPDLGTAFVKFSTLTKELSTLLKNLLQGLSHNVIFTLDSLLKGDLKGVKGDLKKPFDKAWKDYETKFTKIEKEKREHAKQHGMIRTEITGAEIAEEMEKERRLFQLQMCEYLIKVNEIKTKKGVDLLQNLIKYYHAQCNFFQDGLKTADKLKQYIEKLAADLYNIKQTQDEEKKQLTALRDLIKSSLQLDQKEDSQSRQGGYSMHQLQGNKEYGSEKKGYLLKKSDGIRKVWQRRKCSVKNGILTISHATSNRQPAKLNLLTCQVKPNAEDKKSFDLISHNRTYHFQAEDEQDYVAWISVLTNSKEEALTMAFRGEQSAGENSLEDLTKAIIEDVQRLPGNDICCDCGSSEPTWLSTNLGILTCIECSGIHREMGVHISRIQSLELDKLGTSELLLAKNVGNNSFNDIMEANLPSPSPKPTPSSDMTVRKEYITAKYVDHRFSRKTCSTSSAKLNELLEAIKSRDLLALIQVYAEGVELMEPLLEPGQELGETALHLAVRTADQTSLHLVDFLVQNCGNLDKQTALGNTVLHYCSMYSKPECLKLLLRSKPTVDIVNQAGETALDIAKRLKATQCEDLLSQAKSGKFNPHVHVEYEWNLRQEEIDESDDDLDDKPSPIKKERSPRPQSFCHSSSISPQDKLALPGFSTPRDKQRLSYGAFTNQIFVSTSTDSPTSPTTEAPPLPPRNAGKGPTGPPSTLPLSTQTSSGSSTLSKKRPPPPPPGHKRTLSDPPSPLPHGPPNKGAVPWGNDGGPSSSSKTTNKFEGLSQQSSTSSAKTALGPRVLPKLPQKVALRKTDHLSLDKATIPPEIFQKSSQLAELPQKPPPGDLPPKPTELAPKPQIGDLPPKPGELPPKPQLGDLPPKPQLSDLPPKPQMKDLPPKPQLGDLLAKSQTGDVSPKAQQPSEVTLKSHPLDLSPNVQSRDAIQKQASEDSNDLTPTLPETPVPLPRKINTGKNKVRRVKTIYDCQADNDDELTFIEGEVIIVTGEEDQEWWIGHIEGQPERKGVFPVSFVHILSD
# Sequence of DNA (cytosine-5)-methyltransferase 1 (P26358 whole entry): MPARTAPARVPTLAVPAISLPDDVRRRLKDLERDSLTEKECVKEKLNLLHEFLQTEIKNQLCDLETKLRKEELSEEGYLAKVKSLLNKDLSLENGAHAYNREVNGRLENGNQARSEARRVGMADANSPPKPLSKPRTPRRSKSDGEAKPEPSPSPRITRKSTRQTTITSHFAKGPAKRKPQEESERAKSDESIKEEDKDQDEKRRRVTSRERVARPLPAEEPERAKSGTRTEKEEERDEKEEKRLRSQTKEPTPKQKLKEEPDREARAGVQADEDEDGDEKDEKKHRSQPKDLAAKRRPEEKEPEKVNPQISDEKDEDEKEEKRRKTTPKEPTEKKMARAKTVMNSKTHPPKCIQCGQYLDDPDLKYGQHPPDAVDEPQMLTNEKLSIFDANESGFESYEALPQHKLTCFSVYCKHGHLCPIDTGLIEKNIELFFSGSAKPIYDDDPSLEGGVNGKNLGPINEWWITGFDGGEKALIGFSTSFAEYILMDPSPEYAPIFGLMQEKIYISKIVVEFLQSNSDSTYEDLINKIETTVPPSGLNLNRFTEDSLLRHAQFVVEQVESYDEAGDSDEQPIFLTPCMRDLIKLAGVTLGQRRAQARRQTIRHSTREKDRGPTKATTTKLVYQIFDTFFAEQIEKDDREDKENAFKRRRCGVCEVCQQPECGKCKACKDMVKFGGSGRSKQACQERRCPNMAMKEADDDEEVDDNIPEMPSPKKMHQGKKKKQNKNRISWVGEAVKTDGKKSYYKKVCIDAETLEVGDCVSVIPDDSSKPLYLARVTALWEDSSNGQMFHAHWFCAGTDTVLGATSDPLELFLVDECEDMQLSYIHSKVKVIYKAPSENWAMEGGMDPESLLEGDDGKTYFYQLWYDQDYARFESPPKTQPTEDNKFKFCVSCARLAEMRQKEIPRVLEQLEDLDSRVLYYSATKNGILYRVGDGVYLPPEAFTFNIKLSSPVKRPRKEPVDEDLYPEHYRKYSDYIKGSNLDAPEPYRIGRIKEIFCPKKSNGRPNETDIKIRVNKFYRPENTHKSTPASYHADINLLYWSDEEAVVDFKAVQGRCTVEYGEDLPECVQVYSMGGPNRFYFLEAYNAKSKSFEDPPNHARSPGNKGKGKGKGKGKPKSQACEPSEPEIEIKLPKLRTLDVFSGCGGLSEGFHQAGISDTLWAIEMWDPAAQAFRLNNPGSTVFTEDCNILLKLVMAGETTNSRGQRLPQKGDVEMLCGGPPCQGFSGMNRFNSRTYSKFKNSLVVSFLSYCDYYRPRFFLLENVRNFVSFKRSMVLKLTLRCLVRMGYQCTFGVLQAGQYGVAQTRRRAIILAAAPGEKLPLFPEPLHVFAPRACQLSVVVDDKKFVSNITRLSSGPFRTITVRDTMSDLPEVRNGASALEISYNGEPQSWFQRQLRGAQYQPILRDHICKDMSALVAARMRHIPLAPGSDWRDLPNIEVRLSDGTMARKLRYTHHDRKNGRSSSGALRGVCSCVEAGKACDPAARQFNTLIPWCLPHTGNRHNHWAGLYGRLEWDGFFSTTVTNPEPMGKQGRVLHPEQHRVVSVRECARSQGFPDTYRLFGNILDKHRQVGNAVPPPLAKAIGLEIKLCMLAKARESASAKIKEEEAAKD
# Sequence of Beta-galactosidase (Q8VNN2 whole entry, the tested form may be a part): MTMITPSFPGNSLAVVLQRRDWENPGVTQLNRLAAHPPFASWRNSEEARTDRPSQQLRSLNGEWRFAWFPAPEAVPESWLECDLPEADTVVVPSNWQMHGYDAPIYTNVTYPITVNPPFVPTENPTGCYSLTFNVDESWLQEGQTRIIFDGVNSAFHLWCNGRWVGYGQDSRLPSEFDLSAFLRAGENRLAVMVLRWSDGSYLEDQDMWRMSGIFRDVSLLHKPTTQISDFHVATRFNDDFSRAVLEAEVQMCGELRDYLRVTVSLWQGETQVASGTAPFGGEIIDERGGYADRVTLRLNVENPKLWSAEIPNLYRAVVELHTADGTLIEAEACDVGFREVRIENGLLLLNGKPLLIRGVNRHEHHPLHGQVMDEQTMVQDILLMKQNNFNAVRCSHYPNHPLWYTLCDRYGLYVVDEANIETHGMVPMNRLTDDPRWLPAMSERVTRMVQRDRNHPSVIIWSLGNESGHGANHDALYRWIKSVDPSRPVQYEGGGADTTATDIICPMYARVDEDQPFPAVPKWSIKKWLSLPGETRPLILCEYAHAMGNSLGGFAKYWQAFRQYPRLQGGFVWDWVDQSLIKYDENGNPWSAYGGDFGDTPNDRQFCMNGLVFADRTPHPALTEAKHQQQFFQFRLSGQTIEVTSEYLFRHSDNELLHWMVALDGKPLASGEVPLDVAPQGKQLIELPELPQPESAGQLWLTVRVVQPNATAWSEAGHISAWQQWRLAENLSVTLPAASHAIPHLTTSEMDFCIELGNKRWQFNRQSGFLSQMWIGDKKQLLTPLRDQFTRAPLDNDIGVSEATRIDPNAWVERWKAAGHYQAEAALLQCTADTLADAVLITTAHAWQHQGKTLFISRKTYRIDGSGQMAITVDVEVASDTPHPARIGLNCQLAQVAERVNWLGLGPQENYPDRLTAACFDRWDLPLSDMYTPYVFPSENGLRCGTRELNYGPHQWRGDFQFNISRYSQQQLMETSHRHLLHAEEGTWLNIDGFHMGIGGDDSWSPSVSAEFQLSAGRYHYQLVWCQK
# Sequence of Paired box protein Pax-8 (Q06710 whole entry, the tested form may be a part): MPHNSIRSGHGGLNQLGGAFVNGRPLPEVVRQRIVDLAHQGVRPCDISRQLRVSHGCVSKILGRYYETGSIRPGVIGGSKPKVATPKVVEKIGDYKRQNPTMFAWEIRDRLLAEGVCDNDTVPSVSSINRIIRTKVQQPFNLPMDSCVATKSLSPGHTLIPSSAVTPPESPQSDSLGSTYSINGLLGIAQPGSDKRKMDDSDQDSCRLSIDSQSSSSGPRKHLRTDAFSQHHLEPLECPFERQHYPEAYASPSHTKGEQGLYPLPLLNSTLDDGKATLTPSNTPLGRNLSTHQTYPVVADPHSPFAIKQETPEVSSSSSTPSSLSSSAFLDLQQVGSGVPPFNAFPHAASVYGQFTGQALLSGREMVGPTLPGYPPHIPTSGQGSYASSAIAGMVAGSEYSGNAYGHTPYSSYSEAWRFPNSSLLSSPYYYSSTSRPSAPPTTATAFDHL
# Sequence of Large T antigen (P03070 whole entry): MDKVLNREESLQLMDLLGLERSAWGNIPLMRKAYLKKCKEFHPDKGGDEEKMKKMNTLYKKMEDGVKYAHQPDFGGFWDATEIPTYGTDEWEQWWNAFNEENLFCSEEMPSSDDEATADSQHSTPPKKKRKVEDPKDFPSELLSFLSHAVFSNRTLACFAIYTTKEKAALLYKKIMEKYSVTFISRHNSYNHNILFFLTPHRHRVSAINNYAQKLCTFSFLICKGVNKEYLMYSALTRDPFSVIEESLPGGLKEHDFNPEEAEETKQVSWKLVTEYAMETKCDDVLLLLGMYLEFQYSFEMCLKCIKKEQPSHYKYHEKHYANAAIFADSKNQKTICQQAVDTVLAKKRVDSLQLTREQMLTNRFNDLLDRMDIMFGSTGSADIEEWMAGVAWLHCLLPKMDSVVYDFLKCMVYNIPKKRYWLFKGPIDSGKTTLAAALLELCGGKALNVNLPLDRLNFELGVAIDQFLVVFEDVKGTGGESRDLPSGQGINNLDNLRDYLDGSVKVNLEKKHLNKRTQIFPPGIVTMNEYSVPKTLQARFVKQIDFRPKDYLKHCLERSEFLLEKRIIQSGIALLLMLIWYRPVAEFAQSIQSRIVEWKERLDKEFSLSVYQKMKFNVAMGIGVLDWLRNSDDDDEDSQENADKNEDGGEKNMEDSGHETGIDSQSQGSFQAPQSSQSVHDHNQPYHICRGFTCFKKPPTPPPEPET
# Sequence of Phospholipase A2 (P04054 whole entry): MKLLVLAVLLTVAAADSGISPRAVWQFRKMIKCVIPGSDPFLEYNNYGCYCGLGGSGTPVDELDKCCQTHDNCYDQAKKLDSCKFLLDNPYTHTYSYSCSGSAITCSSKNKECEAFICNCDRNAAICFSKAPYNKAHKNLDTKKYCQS
smiles,measurement,setting,value
CCCCN(Cc1ccco1)C(=O)Cn1ncc2c(=O)oc3ccc(C)cc3c21,EC50,[1],> 195 µM (not active)
same,IC50,Beta-galactosidase,> 80 µM (inactive)
same,IC50,[2],53.2 µM (inactive)
CCCn1c(NCc2ccc(N(C)C)cc2)nc2ccccc21,AC50,Vero [3],36.6 µM (active)
CC(=O)OC1CCC2(C)C(CCC3C4CC=C(C(C)=O)C4(C)OC(=O)CC32)C1 (configuration not stated),CC50,Vero [4],34.9 µM (active)
same,AC50,HEK293,1.65 µM (active)
same,IC50,Interleukin-8 [5],0.338 µM (active)
same,IC50,Interleukin-8 [6],1.12 µM (active)
same,AC50,Paired box protein Pax-8,6.49 µM (active)
same,IC50,[7],5.12 µM (active)
Cc1cc(/C=C2\C(=O)NC(=O)N(c3ccc(Cl)cc3)C2=O)c(C)n1-c1sc2c(c1C#N)CCCC2,IC50,Phospholipase A2,14.1 µM (active)
same,IC50,Hexokinase HKDC1,10.8 µM (active)
same,IC50,Large T antigen,17.2 µM (active)
same,IC50,[8],9.52 µM (active)
same,IC50,Cysteine protease ATG4B,14.7 µM (active)
O=C(/C=C\Nc1ccc2c(c1)OCO2)c1ccc(Cl)s1,IC50,[9],> 80 µM (inactive)
same,IC50,[10],19.9 µM (active)
